Series [1] can be described thus: Intrinsic clearance in human liver microsomes. In kind it is ADME, Microsome. (Liver microsomes are a subcellular fraction often used to study metabolism.)
A short description of series [2]: Intrinsic clearance in rat liver microsomes. The class given is ADME, Microsome.
The target of series [3] is T1, Cytochrome P450 3A4 (Homo sapiens, UniProt P08684). The series can be described thus: Inhibition of CYP3A4 using diethoxyfluorescein substrate. The class given is ADME.
T1 sequence (P08684 whole entry): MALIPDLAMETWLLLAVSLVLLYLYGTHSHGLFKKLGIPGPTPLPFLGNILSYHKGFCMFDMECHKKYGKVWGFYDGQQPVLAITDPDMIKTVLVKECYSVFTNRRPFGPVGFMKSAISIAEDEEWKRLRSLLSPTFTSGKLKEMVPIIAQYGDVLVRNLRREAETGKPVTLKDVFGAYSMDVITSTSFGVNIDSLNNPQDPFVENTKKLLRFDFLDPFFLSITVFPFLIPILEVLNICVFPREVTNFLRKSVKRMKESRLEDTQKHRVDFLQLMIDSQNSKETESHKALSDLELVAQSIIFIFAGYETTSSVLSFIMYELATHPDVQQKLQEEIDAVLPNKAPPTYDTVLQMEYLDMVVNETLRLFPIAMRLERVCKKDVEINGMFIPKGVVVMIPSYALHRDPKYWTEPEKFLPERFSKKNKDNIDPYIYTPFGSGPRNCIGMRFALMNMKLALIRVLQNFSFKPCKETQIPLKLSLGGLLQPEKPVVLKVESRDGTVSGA
The nature of series [4]: Inhibition of H+/K+ ATPase at pH 7.4.
Another series deals with Cytochrome P450 2C19 (Homo sapiens, UniProt P33261). The series can be described thus: Inhibition of CYP2C19. The class given is ADME.
Sequence of Cytochrome P450 2C19 (P33261 whole entry): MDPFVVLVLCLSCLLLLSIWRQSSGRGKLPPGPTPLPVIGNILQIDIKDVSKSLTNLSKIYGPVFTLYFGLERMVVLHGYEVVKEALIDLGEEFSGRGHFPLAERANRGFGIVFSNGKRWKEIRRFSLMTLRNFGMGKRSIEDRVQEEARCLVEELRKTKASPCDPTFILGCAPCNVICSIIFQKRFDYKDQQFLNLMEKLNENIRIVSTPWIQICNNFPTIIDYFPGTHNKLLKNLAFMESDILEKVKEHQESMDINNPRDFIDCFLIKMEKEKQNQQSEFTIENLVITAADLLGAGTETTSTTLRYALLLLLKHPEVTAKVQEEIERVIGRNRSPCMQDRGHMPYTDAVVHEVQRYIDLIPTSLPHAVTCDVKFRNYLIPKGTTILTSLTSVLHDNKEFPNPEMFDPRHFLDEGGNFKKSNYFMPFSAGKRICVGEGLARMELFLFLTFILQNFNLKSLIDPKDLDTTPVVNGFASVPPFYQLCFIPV
The target in a further series is T2, Cytochrome P450 1A2 (Homo sapiens, UniProt P05177).
T2 sequence (P05177 whole entry): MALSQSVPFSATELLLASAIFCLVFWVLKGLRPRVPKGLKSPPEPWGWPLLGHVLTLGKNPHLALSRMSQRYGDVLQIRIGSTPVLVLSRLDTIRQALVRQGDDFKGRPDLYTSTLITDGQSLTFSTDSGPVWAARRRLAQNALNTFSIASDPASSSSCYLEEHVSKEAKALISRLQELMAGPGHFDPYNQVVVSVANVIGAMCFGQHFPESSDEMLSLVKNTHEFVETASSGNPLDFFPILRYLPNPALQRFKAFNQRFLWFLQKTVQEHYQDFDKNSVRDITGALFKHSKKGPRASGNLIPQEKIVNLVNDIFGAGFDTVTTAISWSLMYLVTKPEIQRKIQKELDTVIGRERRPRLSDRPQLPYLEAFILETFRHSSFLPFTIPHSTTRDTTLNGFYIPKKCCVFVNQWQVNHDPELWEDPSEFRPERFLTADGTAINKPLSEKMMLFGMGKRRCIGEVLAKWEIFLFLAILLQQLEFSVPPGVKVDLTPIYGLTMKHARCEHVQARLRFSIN
Briefly: Inhibition of CYP1A2. The class given is ADME.

The target of the next series is Cytochrome P450 2D6 (Homo sapiens, UniProt P10635). The series can be described thus: Inhibition of CYP2D6. The class given is ADME.
Sequence of Cytochrome P450 2D6 (P10635 whole entry): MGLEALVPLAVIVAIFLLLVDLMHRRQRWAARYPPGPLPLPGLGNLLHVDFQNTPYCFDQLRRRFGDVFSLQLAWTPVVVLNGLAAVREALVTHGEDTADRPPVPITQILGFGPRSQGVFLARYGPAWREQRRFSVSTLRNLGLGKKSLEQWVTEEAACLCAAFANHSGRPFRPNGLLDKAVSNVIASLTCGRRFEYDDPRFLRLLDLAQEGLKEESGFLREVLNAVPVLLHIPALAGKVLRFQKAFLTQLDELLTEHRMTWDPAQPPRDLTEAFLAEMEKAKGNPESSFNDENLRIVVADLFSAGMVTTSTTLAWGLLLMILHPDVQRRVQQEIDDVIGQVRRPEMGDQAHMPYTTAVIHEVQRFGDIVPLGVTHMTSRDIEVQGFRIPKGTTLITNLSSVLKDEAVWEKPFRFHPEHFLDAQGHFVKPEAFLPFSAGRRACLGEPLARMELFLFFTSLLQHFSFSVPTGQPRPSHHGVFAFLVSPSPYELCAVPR
A further series concerns the target CYP2D6 (Homo sapiens, UniProt P10635). The series can be described thus: Inhibition of CYP2D6 assessed as ratio of IC50 at 0 mins to IC50 at 10 mins. The class given is ADME. Conditions: read-out: Ratio IC50.
In the next series the target is Cytochrome P450 2C9 (Homo sapiens, UniProt P11712).
Sequence of Cytochrome P450 2C9 (P11712 whole entry): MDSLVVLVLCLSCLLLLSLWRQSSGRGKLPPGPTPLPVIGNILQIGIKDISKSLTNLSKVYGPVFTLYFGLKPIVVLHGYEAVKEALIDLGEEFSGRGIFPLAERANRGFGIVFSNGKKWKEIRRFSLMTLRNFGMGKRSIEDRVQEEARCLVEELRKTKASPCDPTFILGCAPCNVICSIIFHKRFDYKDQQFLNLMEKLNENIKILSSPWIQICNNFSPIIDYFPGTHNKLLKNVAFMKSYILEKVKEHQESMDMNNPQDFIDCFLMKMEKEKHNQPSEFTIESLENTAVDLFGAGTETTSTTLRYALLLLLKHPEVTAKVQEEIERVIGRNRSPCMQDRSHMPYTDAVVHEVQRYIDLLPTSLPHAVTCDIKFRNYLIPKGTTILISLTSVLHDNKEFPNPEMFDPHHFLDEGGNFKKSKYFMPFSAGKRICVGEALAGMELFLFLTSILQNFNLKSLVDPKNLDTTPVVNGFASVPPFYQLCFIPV
A short description of series [5]: Intrinsic clearance in dog liver microsomes. The class given is ADME, Canis lupus familiaris, Microsome.
Series [6] deals with T1, Cytochrome P450 3A4. Briefly: Inhibition of CYP3A4 using 7-benzyloxyquinoline substrate. The class given is ADME.
For another series, the target named is CYP3A4 (Homo sapiens, UniProt P08684). The series can be described thus: Inhibition of CYP3A4 assessed as ratio of IC50 at 0 mins to IC50 at 10 mins using diethoxyfluorescein substrate. Particulars: probe diethoxyfluorescein; read-out: Ratio IC50. The class given is ADME.
Sequence of CYP3A4 (P08684 whole entry): as the sequence (P08684 whole entry) above
Series [7] is described as follows: Inhibition of H+/K+ ATPase in parietal cells assessed as inhibition of histamine-stimulated [14C]aminopyrine accumulation.
Series [8] in a line: Chromatographic hydrophobicity index at pH 7.4 by fast gradient HPLC. The class given is physicochemical. Conditions: buffer.
Series [9] is described as follows: Dissociation constant, pKa of the compound. In kind it is physicochemical. Conditions: read-out: pKa.
The nature of series [10]: Inhibition of H+/K+ ATPase in parietal cells assessed as inhibition of pentagastrin-stimulated [14C]aminopyrine accumulation at 1 uM. The class given is cell-based.
Series [11] in a line: Inhibition of H+/K+ ATPase in parietal cells assessed as inhibition of pentagastrin-stimulated [14C]aminopyrine accumulation at 50 nM. In kind it is cell-based.
Series [12] in a line: Inhibition of H+/K+ ATPase in parietal cells assessed as inhibition of pentagastrin-stimulated [14C]aminopyrine accumulation at 50 µM.

Structures are written as SMILES. Active and inactive are the calls of the source. The calls are words filed in the database; no cut-off is given here. Where only a bound is given, the exact number is not on record here.

Sequence of CYP2D6 (P10635 whole entry): as the sequence (P10635 whole entry) above

`Cc1c(C)n(C[C@H]2C[C@@H]2C)c2c(OCc3ccc(F)cc3)nncc12`: the CLint scaled worked out at 16 mL/min/kg in series [1], 30 mL/min/kg in [2] and 38 mL/min/kg in [5]. For the same compound, the IC50 against Cytochrome P450 3A4 [3] turned out to be 6 µM; against Cytochrome P450 2C19, 5.1 µM; at Cytochrome P450 1A2 it was 1.2 µM; at Cytochrome P450 2D6, 4.4 µM; against Cytochrome P450 2C9 it was 0.8 µM; at Cytochrome P450 3A4 [6] it was 14 µM. In addition, the IC50 in series [7] is 0.282 µM. Besides, the pIC50 in series [4] stood at 6.8. Also, the IC50 shift turned out to be 0.6 on CYP2D6 and 1.2 at CYP3A4.
Consider `Cc1cccc(C)c1CNc1nccc2c1nc(C)n2C`, for which the results for the CLint scaled in series [1], in series [2] and in series [5] were 3.4 mL/min/kg, 14 mL/min/kg and 6.5 mL/min/kg, respectively. The IC50 on Cytochrome P450 3A4 [3] is 12 µM; on Cytochrome P450 2C19, 27 µM; against Cytochrome P450 1A2, 31 µM; against Cytochrome P450 2D6, below 0.1 µM; against Cytochrome P450 2C9, 68 µM; at Cytochrome P450 3A4 [6], 21 µM. Besides, in series [7], the concentration for half-maximal inhibition (IC50) is 0.0741 µM. The same compound returned a negative-log IC50 (pIC50) in series [4] of 5.3. Also, the chromatographic logD in series [8] came out at 2.09. The pKa in series [9] was determined as 7.49.
Consider `Cc1cccc(C)c1CNc1cccn2c(C)nnc12`, for which, in [4], the pIC50 was determined as 4. Also, the pIC50 result in series [10] was “inactive”. Besides, the chromatographic logD in series [8] was 3.5.
In the case of `Cc1cccc(C)c1CNc1nccc2c(C)c[nH]c12`, the inhibition in series [11] came to 92.5%. Further, the pIC50 in [4] is on record as 9. Further, in series [9], the pKa came to 8.71.
For `Cc1[nH]c2c(NCc3ccccc3)nccc2c1C` the same measures were 98.5%, 8.4 and 8.79.
`Cc1cccc(C)c1CNc1nccc2c1cc(C)n2C`: the CLint scaled in series [1] amounted to 3.8 mL/min/kg; in series [2] it was 28 mL/min/kg; in [5] it was 17 mL/min/kg. The IC50 at Cytochrome P450 3A4 [3] was 3.1 µM; against Cytochrome P450 2C19 it was 6.9 µM; against Cytochrome P450 1A2, 41 µM; against Cytochrome P450 2D6, below 0.1 µM; on Cytochrome P450 2C9 it was 66 µM; at Cytochrome P450 3A4 [6] it was 4.3 µM. This compound had a pIC50 in series [4] of 6.8. For the same compound, the inhibition in [12] was 22%. For the same compound, the chromatographic logD in [8] is 2.04. Further, in series [9], the pKa is 9.14.
In turn, `Cc1cccc(C)c1CNc1ccnc2c1cc(C)n2C` showed a pIC50 in [4] of 4.8. For the same compound, the inhibition in [12] came out at 36%. The compound further returned a chromatographic logD in [8] of 3.28. In [9], the pKa is 7.42.
Turning to `Cc1cccc(C)c1CNc1nccc2c(C)c(C)[nH]c12`, the CLint scaled in series [1] turned out to be 5 mL/min/kg; in series [2], 50 mL/min/kg; in [5], 19 mL/min/kg. Besides, the 50% inhibitory concentration (IC50) on Cytochrome P450 3A4 [3] was 9 µM; against Cytochrome P450 2C19 it was 1.8 µM; against Cytochrome P450 1A2, 14 µM; against Cytochrome P450 2D6 it was below 0.1 µM; against Cytochrome P450 2C9 it was 33 µM; against Cytochrome P450 3A4 [6], 9.6 µM. In addition, the IC50 in series [7] was 0.0708 µM. Moreover, the inhibition in series [11] came out at 67.3%. Further, the pIC50 in series [4] was 9.4. In addition, the chromatographic logD in series [8] is 2.29.

The CLint scaled is the capacity of the preparation to metabolise the compound, expressed as a volume cleared per time. Low values mean slow turnover, high ones rapid turnover. The term IC50 denotes the concentration at which inhibition is half-maximal. As usually defined, the pIC50 is the negative decadic logarithm of the IC50, by convention in mol/L. The chromatographic logD is lipophilicity estimated from chromatographic retention. Read a low chromatographic logD as a more hydrophilic compound. A word on the pKa: it is the pH at which an ionisable group is half protonated. As usually defined, the inhibition is the relative decrease from the control value, in per cent.

These data come from ChEMBL document CHEMBL1154377, “Evaluation of basic, heterocyclic ring systems as templates for use as potassium competitive acid blockers (pCABs)” (Bioorg Med Chem Lett, 2009).
